Source: patent publication US20230210834A1, “RNA METHYLTRANSFERASE INHIBITOR, SCREENING METHOD THEREFOR, ANTI-CANCER AGENT EFFICACY ASSESSMENT MARKER, AND KIT FOR EFFECTIVELY PREDICTING FTSJ1 INHIBITOR” (National University Corporation Okayama University, priority 2019, published 2023)

Tests used:
[1] = system: polyglutamine luciferase reporter; experiment: Screening: polyglutamine luciferase reporter assay in NUGC3 cells (luminescence % of DMSO); assay type: cell-based, human; settings: NUGC3 cells, luminescence relative to DMSO; for Polyglutamine: concentration not given
Experimental: (§1) Human gastric cancer cell line NUGC3 was cultured in a DMEM medium (high glucose with L-glutamine and phenol red, produced by FUJIFILM Wako Pure Chemical Corporation) containing 10% fetal bovine serum (produced by Thermo Fisher Scientific Inc.) and penicillin-streptomycin (produced by FUJIFILM Wako Pure Chemical Corporation) (this medium is simply referred to below as “DMEM+10% FBS+1×P/S”). Then, the NUGC3 cells were seeded in a 60-mm culture dish (produced by BioLite) so that the cells were 80% confluent after 24 hours. Subsequently, 5 μg of a reporter plasmid and 15 μL of a lipofection reagent (transIT-LT1, produced by Mirus Bio LLC) were mixed in 500 μL of Opti-MEM medium (produced by Thermo Fisher Scientific, Inc.) to form a complex, which was added to the medium in which the NUGC3 cells were cultured in the 60-mm culture dish. For use as the reporter plasmid, 5 μg of a polyglutamine luciferase reporter was introduced (in the polyglutamine luciferase reporter, a Renilla luciferase expressed in the IRES was located as an internal standard downstream of the sequence of a firefly luciferase sequence to which polyglutamine was added). Alternatively, a YAP/TAZ activity reporter was used by simultaneously introducing 3 μg of 8×GTIIC plasmid and 2 μg of a Renilla luciferase reporter as an internal standard. After another 24 hours, the cells were exfoliated with a 0.05 w/v % trypsin-0.53 mmol/l EDTA-4Na solution (produced by FUJIFILM Wako Pure Chemical Corporation), and then seeded in a 96-well plate (produced by BioLite) so that the cells were 80% confluent after 24 hours. Twenty-four hours after seeding in the 96-well plate, the medium in each well was replaced with 100 μL of a medium (DMEM+10% FBS+an antibiotic) containing 10 μM or 5 μM of a compound for evaluation. After another 24 hours, the medium containing the compound was removed, and the 96-well plate was transferred on ice. Each well was washed with 100 μL of phosphate buffer (PBS, produced by FUJIFILM Wako Pure Chemical Corporation). Thereafter, 20 μL of Passive Lysis Buffer (1×) contained in a Dual-Luciferase Reporter Assay System (produced by Promega Corporation) was added. The plate was then gently shaken for 15 minutes at room temperature to lyse the cells. After confirming that the cells were lysed, 10 μL of the lysate was transferred from each well to each corresponding well of a white 96-well plate (produced by Greiner Bio-one). To each well of the white 96-well plate was added 100 μL of a mixture of a Luciferase Assay Buffer II and Luciferase Assay Substrate contained in the Dual-Luciferase Reporter Assay System (produced by Promega Corporation), whereby the luminescence of the firefly luciferase was induced, and the luminescence intensity was detected with a microluminometer (produced by Berthold Japan K.K.). Subsequently, 100 μL of a mixture of Stop & Glo Buffer and Stop & Glo Substrate contained in the Dual-Luciferase Reporter Assay System (produced by Promega Corporation) was added, whereby the luminescence of firefly luciferase was quenched while the luminescence of Renilla luciferase was induced, and the luminescence intensity was detected with a microluminometer (produced by Berthold Japan K.K.) in a manner similar to the above. The ratio of the luminescence intensity of the firefly luciferase and the luminescence intensity of the Renilla luciferase was calculated, and the luminescence intensity (%) of the wells containing each compound was calculated with the luminescence intensity of the well containing DMSO (dimethyl sulfoxide, used as a solvent for the compound liquids) taken as 100%. […] Unless otherwise specified, the measured values in the table represent the results obtained by evaluation with the addition of 10 μM of each compound for evaluation.

YAP/TAZ = experiment: Screening: YAP/TAZ activity reporter (8xGTIIC plasmid) assay in NUGC3 cells (luminescence % of DMSO); assay type: cell-based, human; settings: NUGC3 cells, luminescence relative to DMSO; for 8×GTIIC: concentration not given
Experimental: as §1

[2] = polyglutamine luciferase reporter
[3] = YAP/TAZ activity reporter (8×GTIIC)

Row | SMILES | Polyglutamine [1] [%] | 8×GTIIC (YAP/TAZ) [%] | other results
1 | Cc1ccc(C)c(S(=O)(=O)CC2CCC(C3CC3)CC2)c1 (single isomer, unassigned) [SA005] | – | – | Polyglutamine [1, 2]: 76.08%; 8×GTIIC (YAP/TAZ; [3]): 90.78%
2 | Cc1ccc(C)c(S(=O)(=O)C2CCC(CS(=O)(=O)c3ccccc3)CC2)c1 (single isomer, unassigned) [SA014] | – | – | Polyglutamine [1, 2]: 72.95%; 8×GTIIC (YAP/TAZ; [3]): 93.69%
3 | Cc1ccc(C)c(S(=O)(=O)C2CCC(CS(=O)(=O)c3ccccc3)CC2)c1 (single isomer, unassigned) [SA015] | – | – | Polyglutamine [1, 2]: 60.36%; 8×GTIIC (YAP/TAZ; [3]): 69.21%
4 | CCc1ccc(OC)cc1C1CC(c2ccc(C)cc2)=NC1S(=O)(=O)c1ccc(C)cc1 (stereo not shown) [PVZF0043] | 35.33 | 36.69 | –
5 | CCc1cccc(C2CC(c3ccccc3)=NC2S(=O)(=O)c2ccccc2)c1CC (stereo not shown) [PVZF0046] | 47.04 | 54.68 | –
6 | CCc1cccc(C2CC(c3cccc(C)c3)=NC2S(=O)(=O)c2ccccc2)c1CC (stereo not shown) [PVZF0049] | 67.85 | 91.32 | –
7 | CCc1cccc(C2CC(c3ccccc3)=NC2S(=O)(=O)c2ccccc2C)c1CC (stereo not shown) [PVZF0050] | 58.65 | 106.2 | –
8 | CCc1cccc(C2CC(c3ccc(C)cc3)=NC2S(=O)(=O)c2ccccc2C)c1CC (stereo not shown) [PVZF0051] | 40.74 | 36.59 | –
9 | CCc1ccc(C2=NC(S(=O)(=O)c3ccccc3)C(c3cccc(CC)c3CC)C2)cc1CC (stereo not shown) [PVZF0052] | 71.62 | 54.38 | –
10 | CCc1cc(OC)cc(C2=NC(S(=O)(=O)c3ccccc3)C(c3cccc(CC)c3CC)C2)c1 (stereo not shown) [PVZF0053] | 68.68 | 58.96 | –
11 | CCc1ccc(C2=NC(S(=O)(=O)c3ccccc3)C(c3cccc(CC)c3CC)C2)c(CC)c1 (stereo not shown) [PVZF0054] | 56.4 | 49.48 | –
12 | CCc1cc(CC)cc(C2=NC(S(=O)(=O)c3ccc(C)cc3)C(c3cccc(CC)c3CC)C2)c1 (stereo not shown) [PVZF0055] | 46.42 | 45.63 | –
13 | CCc1cccc(C2CC(c3ccc(C)cc3)=NC2S(=O)(=O)c2ccccc2)c1CC (stereo not shown) [PVZF0056] | 48.33 | 53.76 | –
14 | CCc1cccc(C2CC(c3ccc(C)cc3)=NC2S(=O)(=O)c2ccc(C)cc2)c1CC (stereo not shown) [PVZF0057] | 50.71 | 61.81 | –
15 | CCc1cccc(C2CC(c3cccc(C)c3)=NC2S(=O)(=O)c2ccccc2C)c1CC (stereo not shown) [PVZF0058] | 54.21 | 66.66 | –
16 | CCc1cccc(C2CC(c3ccc(C)cc3)=NC2S(=O)(=O)c2ccccc2C)c1CC (stereo not shown) [PVZF0059] | 43.94 | 38.46 | –
17 | CCc1ccccc1C1CC(c2ccc(C)cc2)=NC1S(C)(=O)=O (stereo not shown) [PVZF0060] | 38.44 | 44.13 | –
18 | CCc1cccc(C2CC(c3ccc(C)cc3)=NC2S(C)(=O)=O)c1 (stereo not shown) [PVZF0061] | 69.94 | 121.9 | –
19 | Cc1ccc(C2=NC(S(=O)(=O)c3ccccc3C)C(c3cccc(C)c3)C2)cc1 (stereo not shown) [PVZF0062] | 54.91 | 73.79 | –
20 | CCc1ccccc1C1CC(c2ccc(C)cc2)=NC1S(=O)(=O)c1ccccc1 (stereo not shown) [PVZF0063] | 43.6 | 56.3 | –
21 | Cc1ccc(C2=NC(S(=O)(=O)c3ccccc3C)C(c3ccc(C)cc3)C2)cc1 (stereo not shown) [PVZF0064] | 58.28 | 93.3 | –
22 | CCc1ccccc1C1CC(c2ccc(C)cc2)=NC1S(=O)(=O)c1ccccc1C (stereo not shown) [PVZF0065] | 48.96 | 67.6 | –
23 | CCc1ccc(C2CC(c3ccc(C)cc3)=NC2S(=O)(=O)c2ccccc2)cc1CC (stereo not shown) [PVZF0066] | 56.14 | 65.56 | –

Row | SMILES | Polyglutamine [1] [%] | 8×GTIIC (YAP/TAZ) [%] | other results
24 | CCc1ccc(CC)c(C2CC(c3ccc(C)cc3)=NC2S(=O)(=O)c2ccccc2C)c1 (stereo not shown) [PVZF0067] | 32.14 | 34.58 | –
25 | CCc1cccc(C2CC(c3ccccc3)=NC2S(=O)(=O)c2ccc(C)cc2)c1CC (stereo not shown) [PVZF0068] | 39.33 | 51.65 | –
26 | CCc1cccc(C2CC(c3ccc(C)cc3)=NC2S(=O)(=O)c2ccc(C)cc2)c1CC (stereo not shown) [PVZF0069] | 46.34 | 49.99 | –
27 | Cc1ccc(C2=NC(S(=O)(=O)c3ccc(C)cc3)C(c3ccccc3)C2)cc1 (stereo not shown) [PVZF0072] | 60.73 | 76.88 | –
28 | Cc1ccc(C2=NC(S(=O)(=O)c3ccccc3)C(c3ccc(C)cc3)C2)cc1 (stereo not shown) [PVZF0073] | 60.62 | 86.43 | –
29 | Cc1ccc(C2=NC(S(=O)(=O)c3ccccc3)C(c3ccccc3C)C2)cc1 (stereo not shown) [PVZF0074] | 79.16 | 96.63 | –
30 | CCc1cccc(C2CC(c3ccc(C)cc3)=NC2S(C)(=O)=O)c1CC (stereo not shown) [PVZF0079] | 53.25 | 79.74 | –
31 | CCc1ccc(C2=NC(S(=O)(=O)c3ccc(C)cc3)C(c3cccc(CC)c3CC)C2)cc1CC (stereo not shown) [PVZF0081] | 57.42 | 56.18 | –
32 | Cc1ccc(C2=NC(S(C)(=O)=O)C(c3ccc(C)cc3)C2)cc1 (stereo not shown) [PVZF0082] | 87.78 | 172.9 | –
33 | CCc1ccc(C2CC(c3ccc(C)cc3)=NC2S(C)(=O)=O)cc1 (stereo not shown) [PVZF0083] | 57.89 | 104.5 | –
34 | Cc1ccc(C2=NC(S(C)(=O)=O)C(c3ccc(C(C)C)cc3)C2)cc1 (stereo not shown) [PVZF0084] | 71.08 | 146.9 | –
35 | Cc1ccc(C2=NC(S(=O)(=O)c3ccccc3)C(c3ccc(C)cc3)C2)cc1 (stereo not shown) [PVZF0086] | 58.32 | 57.06 | –
36 | Cc1ccc(C2=NC(S(C)(=O)=O)C(c3ccc(C)cc3)C2)cc1 (stereo not shown) [PVZF0087] | 81.35 | 187.1 | –
37 | CCc1ccc(C2CC(c3ccc(C)cc3)=NC2S(=O)(=O)c2ccccc2)cc1 (stereo not shown) [PVZF0089] | 67.1 | 70.13 | –
38 | CCc1ccccc1C1CC(c2ccc(C)cc2)=NC1S(=O)(=O)c1ccc(C)cc1 (stereo not shown) [PVZF0091] | 34.27 | 40.68 | –
39 | CCc1ccc(C2CC(c3ccc(C)cc3)=NC2S(=O)(=O)c2ccc(C)cc2)cc1 (stereo not shown) [PVZF0092] | 48.91 | 54.44 | –
40 | CC(=O)c1cccc(C2CC(c3ccc(C)cc3)=NC2S(=O)(=O)c2ccccc2)c1 (stereo not shown) [PVZF0093] | 45.45 | 59.77 | –
41 | Cc1ccc(C2=NC(S(=O)(=O)c3ccc(C)cc3)C(c3ccccc3C)C2)cc1 (stereo not shown) [PVZF0094] | 69.05 | 97.79 | –
42 | CC(=O)c1cccc(C2CC(c3ccc(C)cc3)=NC2S(=O)(=O)c2ccc(C)cc2)c1 (stereo not shown) [PVZF0095] | 47.01 | 66.76 | –
43 | Cc1ccc(C2=NC(S(=O)(=O)c3ccccc3)C(c3ccc(C)cc3)C2)cc1 (stereo not shown) [PVZF0096] | 73.68 | 103.6 | –
44 | Cc1ccccc1C1=CC(C2=CC3CCCCC3C=C2)=CC1 (stereo not shown) [PVZF0101] | – | – | activity at 5 µM ([1]; Homo sapiens, NUGC-3, 5 μM): 13%; activity at 10 µM ([1]; Homo sapiens, NUGC-3, 10 μM): 10%; activity at 5 µM (YAP/TAZ; Homo sapiens, NUGC-3, 5 μM, read-out: 8×GTIIC): 16.1%; activity at 10 µM (YAP/TAZ; Homo sapiens, NUGC-3, 10 μM, read-out: 8×GTIIC): 12.5%
45 | CC(C)c1cc(C(C)C)c(S(=O)(=O)CC2CCCC2)c(C(C)C)c1 [PVZF2002] | – | – | Polyglutamine [1, 2]: 36.92%; 8×GTIIC (YAP/TAZ; [3]): 38.2%
46 | CCCCCCS(=O)(=O)c1c(C(C)C)cc(C(C)C)cc1C(C)C [PVZF2003] | – | – | Polyglutamine [1, 2]: 41.74%; 8×GTIIC (YAP/TAZ; [3]): 75.26%
